Measured values taken from ChEMBL document CHEMBL1201862, “PubChem BioAssay data set” (2004).
Activity calls are given as the source filed them.

Tests used:
[1] = nonselective StAR promoter luciferase inhibitors – cell-based, luminescence, luciferase reporter, counter-screen for LRH-1 inverse agonist project, dose response (AID 651969); format: functional
[2] = biological target: Nuclear receptor subfamily 5 group A member 2 (Homo sapiens, UniProt O00482); format: functional, cell-based;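 also: HEK293T cells transfected with LRH-1 and a StAR promoter luciferase reporter; potency for inhibitors that lower LRH-1 driven reporter light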
Steroidogenic factor 1 = Steroidogenic factor 1 (Homo sapiens, UniProt Q13285); assay: Counterscreen for inverse agonists of the liver receptor homolog-1 (LRH-1; NR5A2): Luminescence-based cell-based high throughput dose response assay to identify inverse agonists of the Steroidogenic Factor 1 Nuclear Receptor (SF1; NR5A1).; format: functional
Streptococcus = assay: GAS UMAA2166 growth inhibition – luminescence, BacTiterGlo, counter-screen for streptokinase expression inhibitor project, dose response (AID 1915); format: functional, organism-based;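 also: potency for reduction of bacterial viability or growth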
[3] = biological target: Photoreceptor-specific nuclear receptor (Homo sapiens, UniProt Q9Y5X4); format: functional, cell-based;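 also: CHO-S cells with Gal4-NCOR and VP16-NR2E3 two-hybrid luciferase reporter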
Beta-galactosidase = Beta-galactosidase (Escherichia coli, UniProt Q8VNN2); assay: detection-enzyme interference by beta-gal modulators – biochemical, E. coli enzyme, set 3, artefact control for CCR6 antagonist project, dose response (AID 504712); format: functional
[4] = system: Streptococcus sp. 'group A'; assay: Streptococcus pyogenes SK(-)GAS viability under kanamycin – luminescence, BacTiterGlo, confirmation, counter-screen for streptokinase expression inhibitor project, dose response (AID 1900); format: functional, organism-based
[5] = biological target: T1, Adenosylmethionine-8-amino-7-oxononanoate aminotransferase (Mycobacterium tuberculosis, UniProt P9WQ81); assay: Mycobacterium tuberculosis BioA enzyme inhibitor Measured in Biochemical System Using Plate Reader - 2163-02_Inhibitor_Dose_CherryPick_Activity.; format: functional, Mycobacterium tuberculosis UT205
T1 sequence (P9WQ81 whole entry): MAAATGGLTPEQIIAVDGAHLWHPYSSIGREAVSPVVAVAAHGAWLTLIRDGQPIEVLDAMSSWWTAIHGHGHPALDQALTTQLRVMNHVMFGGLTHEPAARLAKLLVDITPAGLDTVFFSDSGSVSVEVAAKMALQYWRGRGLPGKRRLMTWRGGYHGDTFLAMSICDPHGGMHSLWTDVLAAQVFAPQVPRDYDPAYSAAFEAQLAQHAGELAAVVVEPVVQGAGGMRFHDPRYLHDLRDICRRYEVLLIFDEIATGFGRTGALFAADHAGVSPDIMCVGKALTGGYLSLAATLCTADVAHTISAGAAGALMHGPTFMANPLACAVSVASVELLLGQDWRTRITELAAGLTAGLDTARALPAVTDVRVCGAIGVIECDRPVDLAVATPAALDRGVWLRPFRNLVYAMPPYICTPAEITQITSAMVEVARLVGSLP

[6] = biological target: T2, Small ubiquitin-related modifier 1 (Homo sapiens, UniProt P63165); assay: SUMO1 protein-protein binding blockers, potency – biochemical, FRET, dose response (AID 624383); format: functional; conditions: read-out: IC50_Mean
[7] = biological target: T2, Small ubiquitin-related modifier 1; assay: SUMO1 protein interaction blockers, potency – biochemical, fluorescence polarization, uHTS hits, dose response (AID 624382); format: functional; conditions: read-out: IC50_Mean

Chain of Steroidogenic factor 1 (Q13285 whole entry): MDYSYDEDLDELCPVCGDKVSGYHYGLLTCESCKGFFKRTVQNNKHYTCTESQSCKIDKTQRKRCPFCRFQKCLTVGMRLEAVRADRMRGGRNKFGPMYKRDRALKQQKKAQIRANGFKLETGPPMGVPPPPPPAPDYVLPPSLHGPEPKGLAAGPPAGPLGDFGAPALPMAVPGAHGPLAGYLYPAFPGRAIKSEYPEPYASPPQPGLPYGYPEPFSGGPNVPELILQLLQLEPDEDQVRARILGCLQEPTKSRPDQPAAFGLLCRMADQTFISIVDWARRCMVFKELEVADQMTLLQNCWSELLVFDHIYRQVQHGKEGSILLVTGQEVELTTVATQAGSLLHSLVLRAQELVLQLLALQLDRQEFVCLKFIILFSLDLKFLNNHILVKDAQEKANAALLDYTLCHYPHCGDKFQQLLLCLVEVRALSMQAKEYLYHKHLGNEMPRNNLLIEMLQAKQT
Chain of Nuclear receptor subfamily 5 group A member 2 (O00482 whole entry): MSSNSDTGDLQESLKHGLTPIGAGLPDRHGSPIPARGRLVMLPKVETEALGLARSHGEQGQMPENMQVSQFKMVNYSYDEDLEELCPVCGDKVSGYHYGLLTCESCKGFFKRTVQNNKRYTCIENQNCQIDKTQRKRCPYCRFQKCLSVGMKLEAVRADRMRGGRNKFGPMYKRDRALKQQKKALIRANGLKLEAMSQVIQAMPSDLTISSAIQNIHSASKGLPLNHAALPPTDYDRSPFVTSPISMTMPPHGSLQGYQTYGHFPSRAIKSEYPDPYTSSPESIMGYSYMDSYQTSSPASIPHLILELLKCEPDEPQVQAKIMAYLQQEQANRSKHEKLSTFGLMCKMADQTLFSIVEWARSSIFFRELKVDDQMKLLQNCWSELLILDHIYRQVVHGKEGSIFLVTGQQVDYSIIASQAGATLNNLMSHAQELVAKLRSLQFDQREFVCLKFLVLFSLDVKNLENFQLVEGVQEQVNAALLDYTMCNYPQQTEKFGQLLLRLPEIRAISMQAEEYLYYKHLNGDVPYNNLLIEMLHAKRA
T2 sequence (P63165 whole entry): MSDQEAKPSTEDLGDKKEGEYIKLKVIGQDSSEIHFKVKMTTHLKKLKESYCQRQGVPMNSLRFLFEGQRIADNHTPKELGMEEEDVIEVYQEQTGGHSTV
Chain of Photoreceptor-specific nuclear receptor (Q9Y5X4 whole entry, the tested form may be a part): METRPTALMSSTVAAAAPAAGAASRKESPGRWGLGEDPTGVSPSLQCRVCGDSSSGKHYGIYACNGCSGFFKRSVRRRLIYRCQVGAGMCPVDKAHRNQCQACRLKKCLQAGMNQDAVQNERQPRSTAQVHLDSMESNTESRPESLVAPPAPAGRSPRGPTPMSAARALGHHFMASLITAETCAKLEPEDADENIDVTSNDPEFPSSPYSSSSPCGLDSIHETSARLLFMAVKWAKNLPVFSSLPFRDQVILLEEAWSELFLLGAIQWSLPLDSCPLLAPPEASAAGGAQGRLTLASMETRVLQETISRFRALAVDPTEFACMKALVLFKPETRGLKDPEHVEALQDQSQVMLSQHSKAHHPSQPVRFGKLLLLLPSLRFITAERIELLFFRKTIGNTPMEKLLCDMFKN
Chain of Beta-galactosidase (Q8VNN2 whole entry): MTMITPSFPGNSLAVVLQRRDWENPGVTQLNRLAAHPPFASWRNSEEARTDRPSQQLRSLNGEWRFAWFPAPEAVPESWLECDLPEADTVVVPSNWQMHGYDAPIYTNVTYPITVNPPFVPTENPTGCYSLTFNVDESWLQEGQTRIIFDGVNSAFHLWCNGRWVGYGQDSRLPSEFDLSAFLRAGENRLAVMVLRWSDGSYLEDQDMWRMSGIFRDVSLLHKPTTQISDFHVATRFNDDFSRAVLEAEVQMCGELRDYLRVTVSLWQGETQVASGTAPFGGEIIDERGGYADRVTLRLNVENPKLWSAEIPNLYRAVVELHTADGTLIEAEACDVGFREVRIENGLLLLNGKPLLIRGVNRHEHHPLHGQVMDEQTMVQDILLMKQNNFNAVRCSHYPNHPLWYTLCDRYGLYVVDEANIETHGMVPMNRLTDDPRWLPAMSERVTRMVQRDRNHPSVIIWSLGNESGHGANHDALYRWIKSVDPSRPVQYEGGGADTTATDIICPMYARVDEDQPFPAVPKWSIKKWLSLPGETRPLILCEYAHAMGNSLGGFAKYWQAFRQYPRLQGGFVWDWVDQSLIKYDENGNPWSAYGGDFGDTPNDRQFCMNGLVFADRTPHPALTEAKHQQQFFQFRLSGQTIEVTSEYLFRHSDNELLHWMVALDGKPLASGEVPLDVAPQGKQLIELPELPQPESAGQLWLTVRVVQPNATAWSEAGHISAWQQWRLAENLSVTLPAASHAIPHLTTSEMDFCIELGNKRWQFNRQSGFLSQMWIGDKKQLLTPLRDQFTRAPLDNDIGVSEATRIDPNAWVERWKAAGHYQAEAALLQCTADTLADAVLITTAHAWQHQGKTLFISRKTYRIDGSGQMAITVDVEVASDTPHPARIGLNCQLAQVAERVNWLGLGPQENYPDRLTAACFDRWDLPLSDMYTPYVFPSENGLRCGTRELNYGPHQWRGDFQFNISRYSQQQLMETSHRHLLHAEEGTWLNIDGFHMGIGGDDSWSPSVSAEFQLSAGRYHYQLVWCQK

Row | Compound | IC50 [1] | IC50 [2] | IC50 (Steroidogenic factor 1) | further results
1 | COC(=O)c1ccc(CNC(=O)COC(=O)c2cc(Cl)nc(Cl)c2)cc1 | 35.9 µM (inactive) | 12 µM (inactive) | 12 µM (inactive) | 
2 | Cc1cc(Br)ccc1NC(=O)CN1C(=O)CCC1=O | 35.9 µM (inactive) | 12 µM (inactive) | 0.877 µM (active) | 
3 | Cc1ccc(Cc2cnc(N3C(=N)SC(C)C3=O)s2)cc1 (stereo not drawn) |  |  |  | EC50 (Streptococcus): 3.44 µM (active); IC50 [3]: 1.89 µM (active); IC50 (Beta-galactosidase): > 66.6 µM (inactive); EC50 [4]: 0.574 µM (active)
4 | CC1CN(C(=O)Nc2ccc3snnc3c2)c2ccccc21 (stereo not drawn) |  |  |  | AC50 [5]: 0.212 µM (active)
5 | C=CCCC(=O)Nc1nc(C)c(-c2csc(Nc3cccc(OC)c3)n2)s1 |  |  |  | IC50 [6]: 17.7 µM (active); IC50 [7]: > 66.6 µM (inactive)
6 | O=C(Nc1ccc(F)cc1)NC1CCN(Cc2nnnn2Cc2ccco2)CC1 |  |  |  | AC50 [5]: 3.58 µM (active)
7 | CCOc1ccc(NC(=O)COC(=O)CC2CCCCC2)cc1 | 35.9 µM (inactive) | 35.9 µM (inactive) | 35.9 µM (inactive) | 
8 | O=C(CN1C(=O)C(c2ccc(F)cc2)=NC12CCCC2)Nc1ccc(F)cc1 |  |  |  | IC50 [3]: 2.93 µM (active)
